Laboratory results: patent US20260374739A1, “SMALL MOLECULAR WEIGHT CHEMICAL COMPOUND TO ANTAGONIZE EPH-EPHRIN TETRAMERIZATION AND INHIBIT BIDIRECTIONAL SIGNALING” (THE BOARD OF REGENTS OF THE UNIVERSITY OF TEXAS SYSTEM, priority 2022, published 2026)
“Also recorded” adds a separate entry of the source. Where two headings read alike, the source gives them in different places.

How the values were obtained:
EphrinB3-EphB2 = EphrinB3-EphB2 (Homo sapiens, UniProt P29323); assay: Octet, immobilized human EphrinB3 binding to human EphB2
Description: Studies were conducted to confirm that A20 chemicals can effectively target the human Eph/Ephrin proteins. Octet system was used to first characterize the biophysical interactions of the human B class Eph and Ephrin proteins, and then was tested to assess how A20 may disrupt the interactions. Since the human and rodent proteins are highly conserved, and essentially identical, with EphB2 sharing 99.5% identity between human and mouse, with only 5 of ~1,000 amino acids different, any species-specific differences were not anticipated. Therefore, commercially available human EphrinB1-Fc (EB1), EphrinB2-Fc (EB2), and EphrinB3-Fc (EB3) ectodomain proteins were sparsely immobilized onto biosensors and then exposed to 50 nM of soluble human EphB1-His, EphB2-His, and EphB4-His ectodomains for 800 sec association and 1,000 sec dissociation steps with a total of nine different interactions analyzed. In the absence of A20 chemical, the immobilized human EphrinB proteins bound to their appropriate human EphB target proteins; with EphrinB1 only bound EphB1 and EphB2, EphrinB2 bound all three EphB1, EphB2, and EphB4, and EphrinB3 only bound EphB1 and EphB2 (FIG. 19A-19B).
Addition of compound also altered dissociation kinetics. […] This is referred to as the “unsurmountable” component of the Eph-Ephrin interaction (FIG. 21C). Additionally, AUC data was graphed for these runs (FIG. 21D). […]

EphB1-Fc / EB2-His = target: T1, EphB1-Fc / EB2-His (Rattus norvegicus, UniProt P09759); assay: pulldown EB2-His to EphB1-Fc; assay type: binding, mouse EB2; conditions: 50 and 250 μM for A20; listed as A20
T1 construct: mouse (Mus musculus) EB2-His ectodomain, pulldown
Excerpt: A20, E13, and other compounds from the top 32 hits were then characterized in pulldown assays. EphB1-Fc was immobilized onto Protein A agarose beads, then mixed with compounds and the soluble EB2-His ectodomain for 1 hr at RT, after which protein complexes were washed and then bound EB2 was detected by immunoblot using anti-His antibodies.

EphB1-EphrinB2 = target: T2, EphB1-EphrinB2 (Rattus norvegicus, UniProt P09759); assay: shortened association (80 sec) Octet, immobilized rat EphB1-Fc binding to 100 nM mEB2-His; parameters: species or system mouse EphrinB2; conditions: for Kd: 1:1 fit, read-out: KD of EphB1-EB2; for increase in rate of dissociation (Kdis) / lower affinity of EphB1-EB2 / tetramer accumulation slope: role: inhibitor
T2 construct: rat EphB1-Fc residues 18-538; mouse EB2-His residues 18-232; purchased R&D Systems (EphB1-Fc); Sino Biologicals (EB2-His)
T2 sequence (P09759 18-538): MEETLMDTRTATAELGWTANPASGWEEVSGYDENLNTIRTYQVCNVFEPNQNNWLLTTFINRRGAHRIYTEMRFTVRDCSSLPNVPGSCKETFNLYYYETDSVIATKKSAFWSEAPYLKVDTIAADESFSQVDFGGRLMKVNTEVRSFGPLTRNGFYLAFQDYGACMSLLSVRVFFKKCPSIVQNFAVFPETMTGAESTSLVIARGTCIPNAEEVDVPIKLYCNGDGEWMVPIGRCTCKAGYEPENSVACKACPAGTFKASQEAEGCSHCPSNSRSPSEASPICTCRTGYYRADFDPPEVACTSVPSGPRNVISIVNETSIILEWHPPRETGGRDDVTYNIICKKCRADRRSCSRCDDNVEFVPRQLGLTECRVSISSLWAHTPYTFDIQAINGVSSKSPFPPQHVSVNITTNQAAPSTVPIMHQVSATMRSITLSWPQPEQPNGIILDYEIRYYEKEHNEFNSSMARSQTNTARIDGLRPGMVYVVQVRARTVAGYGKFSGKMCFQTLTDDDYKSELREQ
Description: In the above disclosed Octet interaction studies using human proteins the association and dissociation times were doubled to 800 and 1,000 sec, respectively, resulting in a greater accumulation of the super-stable surmountable and extra-super-stable unsurmountable forms of the Eph-Ephrin tetramers. To better assess early binding activities in the absence of A20, biophysical studies were conducted in which the association times were shortened to 80, 40, 20, 15, 10, and 5 sec, followed by a standard 500 sec dissociation, and where biosensor immobilized rEphB1-Fc ectodomain was exposed to 100 nM soluble mEB2-His. Focusing first on the run with 80 sec association step and for illustrative purpose (FIG. 23), the biosensor response indicates the expected rapid formation of EphB1-EB2 dimers with extremely high 87° slope for the first 10-15 sec of the association, which then quickly bends again as expected this time to a −60° slope as tetramers begin to accumulate. […] The dissociation response then quickly bent to level off and plateau at a signal much higher than baseline to represent the species of stable EphB1-EB2 tetramers that remained complexed throughout the remaining dissociation step.
To assess how A20 chemicals alter early binding activities, 80 sec Octet runs were then conducted using 0, 10, and 100 μM concentrations of the A20 salt compound (FIG. 25A 25B). In the absence of A20, the association response of immobilized EphB1 binding to soluble EB2 is typical to that shown in FIG. 24 and indicates rapid early formation of dimers with very high 87° slope that quickly bends to the tetramerization accumulation slope of −60°, and then once in the dissociation step the slope abruptly reverses to show fast-off of the dimer species with a signal that then leveled off in this experiment at 67% of the maximum response and represents accumulation of the stable tetramers. In runs containing A20, even though there was no effect on the early and fast formation of dimers during the 80 sec association step, there was a clear and very strong dose-dependent reduction in accumulation of the tetramer.
This can be especially seen in the analysis of the kinetic data where the parameters were set to calculate information based off of a 1:1 interaction (FIG. 25C). […] This increased rate of dissociation reflects the near absence in formation of stable tetramers and provides a fairly accurate representation of the Kdis that is specifically attributed to the fast-off melting of dimers. Summarizing these biophysical studies, in the presence of A20 only the fast-on/fast-off dimers form and are visualized in the association step, quickly reaching a homeostasis level of dimers forming and melting in equilibrium (fast-on/fast-off), and not being able to associate into tetramers. Then, when placed into the dissociation step, all the existing dimers quickly melt off leaving behind the few tetramers that were able to form. […] Based on the results, it is concluded that A20 chemicals can be classified as specific/select inhibitors of Eph-Ephrin tetramerization.

Sequence of EphrinB3-EphB2 (P29323 19-543 limits assumed): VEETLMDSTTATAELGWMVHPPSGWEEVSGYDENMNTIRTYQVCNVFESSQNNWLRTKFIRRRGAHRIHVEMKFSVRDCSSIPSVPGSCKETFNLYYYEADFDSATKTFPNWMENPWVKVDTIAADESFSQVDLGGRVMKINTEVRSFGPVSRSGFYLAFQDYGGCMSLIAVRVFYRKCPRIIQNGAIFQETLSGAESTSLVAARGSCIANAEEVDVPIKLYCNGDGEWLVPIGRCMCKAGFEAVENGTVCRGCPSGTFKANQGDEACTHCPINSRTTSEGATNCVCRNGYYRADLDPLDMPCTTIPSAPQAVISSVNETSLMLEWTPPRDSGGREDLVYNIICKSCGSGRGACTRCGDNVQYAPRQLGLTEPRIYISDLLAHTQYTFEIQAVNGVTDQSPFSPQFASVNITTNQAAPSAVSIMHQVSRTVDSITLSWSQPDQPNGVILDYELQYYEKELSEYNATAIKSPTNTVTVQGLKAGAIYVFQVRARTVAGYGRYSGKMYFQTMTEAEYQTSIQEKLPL

## Oc1c(Br)cc(CN2CCOCC2)c2cccnc12 [Compound 5, 7-bromo-5-(morpholinomethyl)quinolin-8-ol]
EphrinB3-EphB2; EB3-EphB2, A20, read-out: reduction of tetramers
  inhibition at 1 µM: ~45%
EphrinB3-EphB2; read-out: concentration producing maximum inhibition
  IC (maximum): 1 µM
EphB1-Fc / EB2-His
  pulldown EB2-His binding to EphB1-Fc: strongly reduced EB2-His binding to EphB1-Fc; also recorded: reduces the ability of soluble EB2-His to bind to immobilized EphB1-Fc
EphB1-EphrinB2; in presence of 10 μM A20
  Kd: 10.5 nM
EphB1-EphrinB2; in presence of 100 μM A20
  Kd: 46.2 nM
EphB1-EphrinB2; 10 μM A20
  increase in rate of dissociation (Kdis): 90 fold
  lower affinity of EphB1-EB2: 76 fold
EphB1-EphrinB2; 10 μM A20, 60° without
  tetramer accumulation slope: 16 °
EphB1-EphrinB2; 100 μM A20
  increase in rate of dissociation (Kdis): 275 fold
  lower affinity of EphB1-EB2: 337 fold
  tetramer accumulation slope: flat line with no slope
